Results taken from patent US20130125265A1, “AGROBACTERIUM-MEDIATED METHOD FOR PRODUCING TRANSFORMED PLANT” (JAPAN TOBACCO INC., priority 2008, published 2013).

Tested on: immature maize embryos (variety: A188)
Assay: Effect of auxin in coculture medium on regeneration and GUS gene expression in whole plants regenerated without selection from Agrobacterium-inoculated immature maize embryos
Type: cell-based
Conditions: for Number of immature embryos found to regenerate into whole plants on LSZ medium / Number of immature embryos with at least one leaf piece showing GUS gene expression / Number of immature embryos whose leaf pieces were all GUS-negative: auxin 6.8 μM in coculture medium, 24 immature embryos per auxin; for Number of immature embryos found to regenerate into whole plants on LSZ medium: Agrobacterium LBA4404 (pSB124); for Percentage of regenerated plants showing expression of the transgene (in words) / Efficiency of regeneration into whole plants (in words): comparison of auxins in coculture medium
Procedure: Maize (variety: A188) immature embryos (1.0 to 1.5 mm in size) at 7 to 14 days after pollination were aseptically collected and washed once with LS-inf liquid medium, followed by pretreatment (thermal treatment at 46° C. for 3 minutes) to increase gene transfer efficiency for transformation enhancement. In LS-inf liquid medium containing 100 μM acetosyringone, Agrobacterium strain LBA4404 (pSB124) (Komari et al., 1996) was suspended to prepare an inoculum.
The thermally-treated immature embryos were mixed with the inoculum, vortexed for 30 seconds, and then allowed to stand for 5 minutes at room temperature. The Agrobacterium-inoculated immature embryos (24 in total) were placed, with their scutella facing up, onto a coculture medium containing dicamba (3,6-dichloro-o-anisic acid) or picloram (4-amino-3,5,6-trichloropicolinic acid) at a concentration of 6.8 μM in LS-AS medium (Ishida et al. 1996; solidified with 8 g/l agarose) which had been prepared to exclude 2,4-D (2,4-dichlorophenoxyacetic acid) and contain 5 μM AgNO3 and 5 μM CuSO4.
On the other hand, LS-AS medium containing 5 μM AgNO3 and 5 μM CuSO4 was supplemented with 1.5 mg/l (6.8 μM) 2,4-D as an auxin member and also used for testing, 24 immature embryos were placed onto this medium.
The immature embryos cultured in the dark at 25° C. for 7 days were placed onto LSZ medium (Ishida et ai., 1996) containing 10 μM CuSO4, and then cultured in the light at 25° C. for about 2 weeks. Leaves of the regenerated whole plants were partially excised and immersed in 0.1 M phosphate buffer (pH 6.8) containing 0.1% Triton X-100 and then allowed to stand at 37° C. for 1 hour. The phosphate buffer was removed and replaced by another phosphate buffer containing 1.0 mM 5-bromo-4-chloro-3-indolyl-β-D-glucuronic acid (X-gluc) and 20% methanol. After treatment at 37° C. for 24 hours, GUS gene expression was analyzed.

SMILES | Number of immature embryos found to regenerate into whole plants on LSZ medium (no selection) | Number of immature embryos with at least one leaf piece showing GUS gene expression (no selection) | Number of immature embryos that did not regenerate into plants on LSZ medium (auxin 1.5 mg/l (6.8 μM) in coculture medium, 24 immature embryos, no selection) | Percentage of regenerated plants showing expression of the transgene (in words) | Number of immature embryos whose leaf pieces were all GUS-negative (no selection) | Efficiency of regeneration into whole plants (in words)
O=C(O)COc1ccc(Cl)cc1Cl [2,4-D, 2,4-dichlorophenoxyacetic acid] | 21 | 4 | 3 | slightly lower | – | –
COc1c(Cl)ccc(Cl)c1C(=O)O [dicamba, 3,6-dichloro-o-anisic acid] | 24 | 11 | – | increased percentage | 13 | higher efficiency
Nc1c(Cl)c(Cl)nc(C(=O)O)c1Cl [picloram, 4-amino-3,5,6-trichloropicolinic acid] | All of the immature embryos | 9 | – | increased percentage | 15 | higher efficiency
